From ChEMBL document CHEMBL1909046, “DrugMatrix in vitro pharmacology data”

Key:
Cytochrome P450 2D6 = Cytochrome P450 2D6 (Homo sapiens, UniProt P10635); details: bti-tn-5b1-4; further: in other assays of this panel Not Active means under 50% inhibition at 10 µM
[1] = target: Prostaglandin G/H synthase 1 (Homo sapiens, UniProt P23219); assay: biochemical; format: tissue-based, Platelet; details: platelet;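 further: inhibition of COX-1 enzyme activity, with arachidonic acid supplied as substrate; in other assays of this panel Not Active means under 50% inhibition at 10 µM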
Chain of Prostaglandin G/H synthase 1 (P23219 whole entry): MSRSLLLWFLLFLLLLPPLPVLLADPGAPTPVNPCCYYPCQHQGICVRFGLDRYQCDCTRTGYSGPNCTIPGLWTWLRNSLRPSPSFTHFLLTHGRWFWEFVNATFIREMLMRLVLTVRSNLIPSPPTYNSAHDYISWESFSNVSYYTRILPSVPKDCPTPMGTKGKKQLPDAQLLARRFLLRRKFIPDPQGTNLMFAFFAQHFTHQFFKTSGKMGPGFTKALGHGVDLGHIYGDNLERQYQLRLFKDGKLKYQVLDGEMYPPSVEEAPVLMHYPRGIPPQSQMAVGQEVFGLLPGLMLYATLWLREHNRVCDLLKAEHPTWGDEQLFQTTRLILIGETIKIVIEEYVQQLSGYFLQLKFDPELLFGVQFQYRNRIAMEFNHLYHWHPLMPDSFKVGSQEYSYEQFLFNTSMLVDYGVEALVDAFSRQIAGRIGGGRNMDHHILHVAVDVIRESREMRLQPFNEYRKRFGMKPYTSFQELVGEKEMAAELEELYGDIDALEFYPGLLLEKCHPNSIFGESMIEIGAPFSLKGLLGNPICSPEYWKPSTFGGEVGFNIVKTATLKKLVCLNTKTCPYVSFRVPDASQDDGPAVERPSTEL

Acetylcholinesterase = Acetylcholinesterase (Homo sapiens, UniProt P22303); assay: DRUGMATRIX: Acetylcholinesterase enzyme inhibition (substrate: acetylthiocholine); format: cell-based, HEK293; details: hek293; Not Active = under 50% inhibition at 10 µM
Chain of Acetylcholinesterase (P22303 whole entry): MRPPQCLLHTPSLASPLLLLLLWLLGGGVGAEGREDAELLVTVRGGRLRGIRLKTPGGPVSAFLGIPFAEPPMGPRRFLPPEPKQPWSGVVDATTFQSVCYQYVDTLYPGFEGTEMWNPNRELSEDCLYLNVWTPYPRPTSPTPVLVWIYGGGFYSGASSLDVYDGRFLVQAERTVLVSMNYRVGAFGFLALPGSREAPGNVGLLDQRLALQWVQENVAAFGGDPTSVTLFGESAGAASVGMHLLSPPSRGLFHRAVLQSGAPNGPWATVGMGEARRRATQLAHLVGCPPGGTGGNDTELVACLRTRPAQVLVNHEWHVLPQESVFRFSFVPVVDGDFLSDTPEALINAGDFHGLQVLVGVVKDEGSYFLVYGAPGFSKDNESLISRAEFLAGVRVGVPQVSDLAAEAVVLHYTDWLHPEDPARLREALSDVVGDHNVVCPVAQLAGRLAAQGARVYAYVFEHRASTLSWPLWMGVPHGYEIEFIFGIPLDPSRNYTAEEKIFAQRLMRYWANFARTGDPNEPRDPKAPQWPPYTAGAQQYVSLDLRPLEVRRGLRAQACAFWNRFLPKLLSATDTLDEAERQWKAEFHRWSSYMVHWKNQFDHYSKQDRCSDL

[2] = target: T1, 5-hydroxytryptamine receptor 2C (Homo sapiens, UniProt P28335); assay: DRUGMATRIX: Serotonin (5-Hydroxytryptamine) 5-HT2C radioligand binding (ligand: [3H] Mesulergine); format: cell membranes, CHO-K1, Membrane; details: cho-k1; Not Active = under 50% inhibition at 10 µM
T1 sequence (P28335 whole entry): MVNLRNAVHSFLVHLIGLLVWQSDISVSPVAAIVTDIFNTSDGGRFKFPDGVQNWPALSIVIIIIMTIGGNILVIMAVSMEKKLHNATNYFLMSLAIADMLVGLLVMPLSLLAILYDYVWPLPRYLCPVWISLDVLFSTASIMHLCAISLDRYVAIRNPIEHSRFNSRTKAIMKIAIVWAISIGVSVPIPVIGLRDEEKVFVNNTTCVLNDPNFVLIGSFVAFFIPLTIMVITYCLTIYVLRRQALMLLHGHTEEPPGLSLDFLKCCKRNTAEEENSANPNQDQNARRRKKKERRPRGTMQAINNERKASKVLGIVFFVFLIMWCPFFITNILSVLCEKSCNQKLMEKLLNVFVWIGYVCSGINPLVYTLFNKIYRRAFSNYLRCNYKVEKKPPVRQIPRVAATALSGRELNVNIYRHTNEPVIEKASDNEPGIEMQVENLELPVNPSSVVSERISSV

[3] = target: T2, Muscarinic acetylcholine receptor M4 (Homo sapiens, UniProt P08173); format: cell membranes, CHO-K1, Membrane; details: cho-k1; further: in other assays of this panel Not Active means under 50% inhibition at 10 µM
T2 sequence (P08173 whole entry): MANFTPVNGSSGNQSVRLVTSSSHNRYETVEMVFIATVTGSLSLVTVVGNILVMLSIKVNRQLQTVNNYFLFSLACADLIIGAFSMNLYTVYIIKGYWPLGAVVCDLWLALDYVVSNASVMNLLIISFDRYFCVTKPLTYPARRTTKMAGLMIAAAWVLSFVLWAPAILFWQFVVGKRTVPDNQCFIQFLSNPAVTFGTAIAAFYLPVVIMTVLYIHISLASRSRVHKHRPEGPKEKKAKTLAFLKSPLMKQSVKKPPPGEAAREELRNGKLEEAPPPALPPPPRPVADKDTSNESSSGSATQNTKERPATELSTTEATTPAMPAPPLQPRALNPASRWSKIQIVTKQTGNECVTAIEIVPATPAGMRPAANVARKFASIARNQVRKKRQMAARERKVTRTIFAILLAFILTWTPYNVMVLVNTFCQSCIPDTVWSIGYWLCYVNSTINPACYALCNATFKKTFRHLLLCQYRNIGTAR

[4] = target: T3, C-X-C chemokine receptor type 1 (Homo sapiens, UniProt P25024); further: in other assays of this panel Not Active means under 50% inhibition at 10 µM
T3 sequence (P25024 whole entry): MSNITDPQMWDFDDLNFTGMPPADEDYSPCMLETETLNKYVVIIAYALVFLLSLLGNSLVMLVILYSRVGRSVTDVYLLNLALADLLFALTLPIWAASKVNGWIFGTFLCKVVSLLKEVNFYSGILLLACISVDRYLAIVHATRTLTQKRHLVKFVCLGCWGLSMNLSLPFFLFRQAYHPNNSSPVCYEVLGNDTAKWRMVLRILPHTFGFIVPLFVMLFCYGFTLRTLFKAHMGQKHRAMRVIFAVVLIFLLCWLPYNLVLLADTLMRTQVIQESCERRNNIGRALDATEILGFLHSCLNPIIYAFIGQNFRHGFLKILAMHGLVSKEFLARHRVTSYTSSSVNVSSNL

Estrogen receptor = target: T4, Estrogen receptor (Homo sapiens, UniProt P03372); details: sf9; further: in other assays of this panel Not Active means under 50% inhibition at 10 µM
T4 sequence (P03372 whole entry): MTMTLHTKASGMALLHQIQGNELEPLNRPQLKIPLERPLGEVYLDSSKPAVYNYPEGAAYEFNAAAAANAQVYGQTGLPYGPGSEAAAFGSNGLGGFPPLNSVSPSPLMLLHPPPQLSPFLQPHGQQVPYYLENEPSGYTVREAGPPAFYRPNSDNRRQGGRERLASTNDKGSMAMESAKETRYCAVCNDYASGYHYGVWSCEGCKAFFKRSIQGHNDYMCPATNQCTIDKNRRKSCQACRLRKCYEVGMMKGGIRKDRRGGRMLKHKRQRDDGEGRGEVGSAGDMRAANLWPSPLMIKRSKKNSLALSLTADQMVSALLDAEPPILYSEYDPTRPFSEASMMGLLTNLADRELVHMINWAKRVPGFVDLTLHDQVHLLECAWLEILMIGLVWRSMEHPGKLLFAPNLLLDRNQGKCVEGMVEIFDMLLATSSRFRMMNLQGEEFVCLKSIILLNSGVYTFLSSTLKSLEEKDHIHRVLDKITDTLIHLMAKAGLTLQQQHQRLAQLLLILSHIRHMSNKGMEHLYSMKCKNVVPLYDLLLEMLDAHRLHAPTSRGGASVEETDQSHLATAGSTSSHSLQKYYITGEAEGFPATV

Chain of Cytochrome P450 2D6 (P10635 whole entry): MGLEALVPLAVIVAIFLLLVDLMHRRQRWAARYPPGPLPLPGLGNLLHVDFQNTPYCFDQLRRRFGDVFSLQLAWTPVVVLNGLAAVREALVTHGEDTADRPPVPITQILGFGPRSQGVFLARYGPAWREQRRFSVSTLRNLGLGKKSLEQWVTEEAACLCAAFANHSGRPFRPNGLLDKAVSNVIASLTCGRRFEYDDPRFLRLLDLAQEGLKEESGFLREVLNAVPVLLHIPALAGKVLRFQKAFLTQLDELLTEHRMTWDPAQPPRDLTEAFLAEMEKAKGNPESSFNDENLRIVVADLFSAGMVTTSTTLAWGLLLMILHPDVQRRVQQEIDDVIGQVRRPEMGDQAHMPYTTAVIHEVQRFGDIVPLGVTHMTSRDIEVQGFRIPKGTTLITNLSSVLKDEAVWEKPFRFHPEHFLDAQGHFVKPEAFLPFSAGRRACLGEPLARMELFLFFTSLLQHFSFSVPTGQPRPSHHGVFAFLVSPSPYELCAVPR

O=C1CC[C@H](N2C(=O)c3ccccc3C2=O)C(=O)N1
Not Active: IC50 (Cytochrome P450 2D6) | Ki (Cytochrome P450 2D6) | IC50 [1] | IC50 (Acetylcholinesterase) | IC50 [2] | IC50 [3] | IC50 [4]

N=C(Nc1ccccc1)Nc1ccccc1
Not Active: IC50 [1] | IC50 (Estrogen receptor) | IC50 (Acetylcholinesterase) | IC50 [2] | IC50 [3] | IC50 [4]

CC(=O)Nc1ccc(O)cc1 [ACETAMINOPHEN]
Not Active: IC50 (Cytochrome P450 2D6) | Ki (Cytochrome P450 2D6) | IC50 [1] | IC50 (Acetylcholinesterase) | IC50 [2] | IC50 [3] | IC50 [4]

CCOC(=O)[C@H](CCc1ccccc1)N[C@H]1CCc2ccccc2N(CC(=O)O)C1=O [BENAZEPRIL]
Not Active: IC50 (Cytochrome P450 2D6) | Ki (Cytochrome P450 2D6) | IC50 [1] | IC50 (Acetylcholinesterase) | IC50 [2] | IC50 [3] | IC50 [4]

Nc1c(CC(=O)O)cccc1C(=O)c1ccc(Br)cc1 [BROMFENAC]
Not Active: IC50 (Cytochrome P450 2D6) | Ki (Cytochrome P450 2D6) | IC50 (Estrogen receptor) | IC50 (Acetylcholinesterase) | IC50 [2] | IC50 [3] | IC50 [4]

O=C1CC2(CCCC2)CC(=O)N1CCCCN1CCN(c2ncccn2)CC1 [BUSPIRONE]
Not Active: IC50 (Cytochrome P450 2D6) | Ki (Cytochrome P450 2D6) | IC50 [1] | IC50 (Acetylcholinesterase) | IC50 [2] | IC50 [3] | IC50 [4]

ClC(Cl)Cl [CHLOROFORM]
Not Active: IC50 (Cytochrome P450 2D6) | Ki (Cytochrome P450 2D6) | IC50 [1] | IC50 (Acetylcholinesterase) | IC50 [2] | IC50 [3] | IC50 [4]

C[C@@H]1C[C@@H]([C@H](O)CC2CC(=O)NC(=O)C2)C(=O)[C@@H](C)C1 [CYCLOHEXIMIDE]
Not Active: IC50 [1] | IC50 (Acetylcholinesterase) | IC50 [2] | IC50 [3] | IC50 [4]

CC(=O)Nc1c(I)c(NC(C)=O)c(I)c(C(=O)O)c1I [DIATRIZOIC ACID]
Not Active: IC50 (Cytochrome P450 2D6) | Ki (Cytochrome P450 2D6) | IC50 [1] | IC50 (Acetylcholinesterase) | IC50 [2] | IC50 [3] | IC50 [4]

O=C(O)Cc1ccccc1Nc1c(Cl)cccc1Cl [DICLOFENAC]
Not Active: IC50 (Cytochrome P450 2D6) | Ki (Cytochrome P450 2D6) | IC50 (Estrogen receptor) | IC50 (Acetylcholinesterase) | IC50 [2] | IC50 [3] | IC50 [4]

CCN1CC(CCN2CCOCC2)C(c2ccccc2)(c2ccccc2)C1=O (stereo not drawn) [DOXAPRAM]
Not Active: IC50 [1] | IC50 (Acetylcholinesterase) | IC50 [2] | IC50 [3] | IC50 [4]

Cn1c(=O)c2c(ncn2CC2OCCO2)n(C)c1=O [DOXOFYLLINE]
Not Active: IC50 (Cytochrome P450 2D6) | Ki (Cytochrome P450 2D6) | IC50 [1] | IC50 (Acetylcholinesterase) | IC50 [2] | IC50 [3] | IC50 [4]

C[C@]12CC[C@@H]3c4ccc(OC(=O)c5ccccc5)cc4CC[C@H]3[C@@H]1CC[C@@H]2O [ESTRADIOL BENZOATE]
Not Active: IC50 (Cytochrome P450 2D6) | Ki (Cytochrome P450 2D6) | IC50 [1] | IC50 (Acetylcholinesterase) | IC50 [2] | IC50 [3] | IC50 [4]

C[C@]12CC[C@@H]3c4ccc(O)cc4CC[C@H]3[C@@H]1CC[C@@H]2O [ESTRADIOL]
Not Active: IC50 (Cytochrome P450 2D6) | Ki (Cytochrome P450 2D6) | IC50 [1] | IC50 (Acetylcholinesterase) | IC50 [2] | IC50 [3] | IC50 [4]
